Data: paper PMC4072041 (Nuclear medicine and biology, 2014)
Values belong to the molecule of their own block, whether it stands above or below them.

Tests used:
CRF1 receptor = conditions: earlier CRF1 ligand; cited from earlier work
CRF1 vs. CRF2 receptors = conditions: stated in method, no reference given; cited from earlier work
[125I]ovine-CRF = molecular target: T1, [125I]ovine-CRF (Ovis aries, UniProt P01142, 125I-labelled CRF); experiment: radioligand binding
T1 chain: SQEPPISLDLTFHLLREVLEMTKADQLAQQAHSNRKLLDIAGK

Molecule: CCC(COC)n1nnc2c(Nc3ccc(OC)cc3C)nc(C)cc21 (racemic) [[^3H]SN003, (+/−)-N-[2-methyl-4-methoxyphenyl]-1(1-(methoxymethyl)propyl)-6-methyl-1H-1,2,3-triazolo[4,5-c]pyridin-4-amine]
ratio of CRF1 receptor-specific to non-specific binding (CRF1 receptor): about 1

Molecule: ovine-CRF
selective for CRF1 vs. CRF2 (CRF1 vs. CRF2 receptors): > 100 fold

Kd ([125I]ovine-CRF): 450 pM
B1: CRF1 receptor (protein)
chain: SLQDQRCENLSLTSNVSGLQCNASVDLIGTCWPRSPAGQLVVRPCPAFFYGVRYNTTNNGYRECLANGSWAARVNYSECQEILNEEKKSKVHYHVAVIINYLGHCISLVALLVAFVLFLRLRSIRCLRNIIHWNLISAFILRNATWFVVQLTVSPEVHQSNVAWCRLVTAAYNYFHVTNFFWMFGEGCYLHTAIVLTYSTDRLRKWMFVCIGWGVPFPIIVAWAIGKLHYDNEKCWFGKRPGVYTDYIYQGPMILVLLINFIFLFNIVRILMTKLRASTTSETIQYRKAVKATLVLLPLLGITYMLFFVNPGEDEVSRVVFIYFNSFLESFQGFFVSVFYCFLNSEVRSAIRKRWRRWQDKHSIRARVARAMSIPTSPTRVSFHSIKQSTAV
